In US20230338454A1, “FORSYTHIA SUSPENSA COMPONENT AND OPTIONAL PANAX GINSENG COMPONENT AND THE APPLICATION” (priority 2020, published 2023):
Where two headings read alike, the source gives them in different places. Marks after values point to notes of the source that are not given here.

Assays:
[1] = test system: respiratory syncytial virus (RSV); assay: Effect of drugs on viral cytopathic effect, effective antiviral rate (ER%); assay type: cell-based; details: Vero cells, 100TCID50, drug at maximum non-toxic concentration, 72 h, MTT
[2] = test system: Parainfluenza virus; assay: as above; assay type: cell-based; details: Vero cells, 100TCID50, drug at maximum non-toxic concentration, 72 h, MTT
[3] = test system: parainfluenza virus; assay type: in vivo, Kunming mice; details: […], 5 days
[4] = test system: Influenza virus; assay: Effect of drugs on viral cytopathic effect, effective antiviral rate (ER%); assay type: cell-based
[5] = test system: Coxsackievirus A16 (CoxA16); assay: as above; assay type: cell-based; details: Vero cells, 100TCID50, drug at maximum non-toxic concentration, 72 h, MTT
[6] = test system: Herpes simplex virus type 1 (HSV-1); assay: as above; assay type: cell-based; details: Vero cells, 100TCID50, drug at maximum non-toxic concentration, 72 h, MTT
[7] = test system: Coxsackievirus B3 (CVB3); assay: as above; assay type: cell-based; details: Vero cells, 100TCID50, drug at maximum non-toxic concentration, 72 h, MTT
[8] = test system: enterovirus 71 (EV71); assay: as above; assay type: cell-based; details: Vero cells, 100TCID50, drug at maximum non-toxic concentration, 72 h, MTT
[9] = test system: Adenovirus (AdV); assay: as above; assay type: cell-based; details: Vero cells, 100TCID50, drug at maximum non-toxic concentration, 72 h, MTT
[10] = test system: influenza virus; assay type: in vivo, Kunming mice; details: lung suspension, mice infected with influenza virus, 5 days
[11] = test system: HCMV AD169 strain; assay: Inhibitory effect on HCMV in vitro (MEC, therapeutic index); assay type: cell-based, human cytomegalovirus; details: HCMV AD169, 100 times TCD50, 10 days of culture
Procedure: Human embryonic lung fibroblast cell strain (purchased from Sino Best Biological Technology Co., Ltd.). The cells were cultured and subcultured according to the conventional method.
HCMV AD169 strain was purchased from American Type Culture Collection (ATCC).
Cells were inoculated in a 96-well plate, allowed to grow into monolayers, and inoculated with a virus challenge of 100 times TCD50. Starting from TD0, each drug was diluted stepwise according to 10-fold gradient to prepare 5 concentrations, with 4 wells set for each concentration. In addition, 4 wells of normal cell control and 4 wells of virus control were set.

[12] = test system: Human embryonic lung fibroblast cell strain
[13] = test system: carrageenan-induced paw swelling; assay: Carrageenan-induced paw swelling in rats; assay type: in vivo, Wistar rats; details: 100 mg/kg, sublingual intravenous injection
Procedure: Each group was administered by sublingual intravenous injection. Before the study, the normal volume of the right hind limb was measured by the capillary magnification method. To avoid errors, the measurement position should be fixed and performed by one person before and after administration. The average of the two measurements was taken as the normal volume of the right hind limb of the rats prior to administration. […] The inter-group t-test was performed by the difference percentage (swelling rate) of the plantar volume before and after the inflammation induction, and the differences among the groups were compared.

[14] = test system: epithelial cells of plantar sweat glands of rats; assay: Sweat secretion of rat paw (histomorphology observation method); assay type: in vivo, Wistar rats; details: 30 min after 35.0 mg/kg subcutaneous
Text: After sweat glands activation in rats, besides the increase of sweat secretion, the morphology of the epithelial cells of the sweat glands changes accordingly. Under the optical microscope, the increase and enlargement of vacuoles in the epithelial cells of the sweat glands are observed. Under an electron microscope, the enlarged vacuoles appear to be due to swelling and rupture of mitochondria, enlargement of fusion and secretory vesicles in the epithelial cells of sweat glands. The secretory activity of sweat glands could be understood by observing the histomorphology of the epithelial cells of plantar sweat glands of rats. Three hundred Wistar rats, half male and half female, weighing 120-160 g. were taken in the study. […] Except for the pilocarpine solution given by subcutaneous injection, other groups were administered by gavage. One hour after the control group was given 0.5% carboxymethyl cellulose, 30 min after the positive drug group was given pilocarpine, and 1 h after the administration of forsythin, ginsenoside Rg3 and the panax ginseng-forsythia suspensa composition, the right hind limb was immediately cut off at the level of the ankle joint. […] Observations were made under an optical microscope for changes in the epithelial cells of the plantar sweat glands of rats in each group, mainly the incidence of vacuoles. The statistical processing was performed by X^2 test, and differences among the groups were compared. The above study was repeated for 3 times.

[15] = test system: sweat secretion of rat paw; assay: Sweat secretion of rat paw (staining method); assay type: in vivo, Wistar rats; details: of 10 rats; 35.0 mg/kg subcutaneous
Text: There are sweat glands on the plantar skin of rats, so the changes in sweat secretion can be observed by the purple reaction between the iodine-starch mixture and the sweat. Five hundred Wistar rats, half male and half female, weighing 120-150 g, were taken in the study. […] The rats were placed in a homemade rat-fixing bag to expose both hind limbs. The dirt on the right paw was gently scrubbed with a cotton swab dipped in absolute ethanol. Except for the pilocarpine solution, which was given by subcutaneous injection, other groups were administered by gavage. One hour after administration (30 min after administration in the pilocarpine group), the sweat secreted from the right paw of rats in each group was gently cleaned with a dry cotton swab before the study and during struggling. The right paw was coated with Wotan-[…] reagent A solution (dissolve 2 g of iodine in 100 mL of absolute ethanol) and then coated with Wotan-[…] reagent B solution (mix 50 g of soluble starch and 100 mL of Ricinus conununis oil well) after reagent A was fully absorbed. […] At the end of the test, a rank-sum test was used to analyze the differences among the groups.

[16] = test system: fever induced by beer yeast; assay: Fever induced by beer yeast in rats; assay type: in vivo, Wistar rats; details: 100 mg/kg
[17] = test system: parainfluenza virus; assay type: in vivo, Kunming mice; details: mice infected with parainfluenza virus
[18] = test system: Vero cells; assay: Cytotoxicity test of drugs on Vero cells (MTT); details: 72 h
[19] = test system: influenza virus; assay type: in vivo, Kunming mice
[20] = 19.5 mg/kg/day by gavage, 5 days
[21] = mice infected with influenza virus, 19.5 mg/kg/day by gavage, 5 days

`NC(=O)c1ncn([C@@H]2O[C@H](CO)[C@@H](O)[C@H]2O)n1` [Ribavirin, reference compound] was tested, and the “Effective Antiviral Rates (ER%) RSV” value [1] was 50.08* %, the “Effective Antiviral Rates (ER%) Parainfluenza virus” value [2] was 91.56** % and the “Hemagglutinin titer (InX)” value ([3]; 58.5 mg/kg/day by gavage) was 23.22±1.091. The “Inhibitory rate (%) of hemagglutination titer” value ([3]; 58.5 mg/kg/day by gavage) was 29.86%, the “Effective Antiviral Rates (ER%) Influenza virus” value [4] was 57.49** % and the “Effective Antiviral Rates (ER%) CoxA16” value [5] was 0.70%. The “Effective Antiviral Rates (ER%) HSV-I” value [6] was 62.92** %, the “Effective Antiviral Rates (ER%) CVB3” value [7] was 13.44% and the “Effective Antiviral Rates (ER%) EV71” value [8] was 4.25%. For the same compound, the “Effective Antiviral Rates (ER%) ADV” value [9] was 0.43%, the “Hemagglutinin titer (InX)” value ([10]; 58.5 mg/kg/day by gavage) was 21.91±1.050 and the “Inhibitory rate (%) of hemagglutination titer” value ([10]; 58.5 mg/kg/day by gavage) was 32.39%.
For `COc1cc(C2OCC3C(c4ccc(OC5OC(C(=O)O)C(O)C(O)C5O)c(OC)c4)OCC23)ccc1O` [33-Hydroxy-phillygenin glucuronide, 33-hydroxy phillygenin-8-O-β-D-glucuronide], the “Minimum effective concentration MEC” value [11] was 0.3 mg/L and the “Maximum non-toxic concentration TD0” value [12] was 30 mg/L.
In the case of `CC(=O)Oc1ccccc1C(=O)O` [Aspinn], the “Swelling rate (%) 15 min” value ([13]; 15 min after inflammation induction) is reported as 8.90±6.70^∗ %, the “Swelling rate (%) 30 min” value ([13]; 30 min after inflammation induction) is reported as 15.6±12.2^∗ % and the “Swelling rate (%) 60 min” value ([13]; 60 min after inflammation induction) is reported as 20.3±10.9^∗ %. For the same compound, the “Swelling rate (%) 120 min” value ([13]; 120 min after inflammation induction) was 21.6±12.1^∗∗ %, the “Swelling rate (%) 180 min” value ([13]; 180 min after inflammation induction) was 26.1±21.1^∗∗ % and the “Swelling rate (%) 240 min” value ([13]; 240 min after inflammation induction) was 26.1±16.3^∗∗ %. The “Swelling rate (%) 300 min” value ([13]; 300 min after inflammation induction) was 34.9±14.6^∗ % and the “Swelling rate (%) 360 min” value ([13]; 360 min after inflammation induction) was 31.9±12.2^∗ %.
With `CC[C@@H]1C(=O)OC[C@@H]1Cc1cncn1C` [Pilocarpine, reference compound] the “Number of vacuolar sweat glands (number)” value [14] was 57 number, the “Vacuolation rate (%)” value [14] was 27.40^∗∗∗ % and the “Number of animals with sweat spots of each grade at 1 min after application of solution B: grade +” value [15] was 1 animals. For the same compound, the “Number of animals with sweat spots of each grade at 1 min after application of solution B: grade ++” value [15] was 3 animals, the “Number of animals with sweat spots of each grade at 1 min after application of solution B: grade +++” value [15] was 1 animals and the “Number of animals with sweat spots of each grade at 1 min after application of solution B: grade +++ (fifth grade column)” value [15] was 5 animals. For the same compound, the “Number of animals with sweat spots of each grade at 1 min after application of solution B: grade -” value [15] was 0 animals, the “Number of animals with sweat spots of each grade at 5 min after application of solution B: grade +” value [15] was 1 animals and the “Number of animals with sweat spots of each grade at 5 min after application of solution B: grade ++” value [15] was 2 animals. The “Number of animals with sweat spots of each grade at 5 min after application of solution B: grade +++” value [15] was 1 animals, the “Number of animals with sweat spots of each grade at 5 min after application of solution B: grade +++ (fifth grade column)” value [15] was 6 animals and the “Number of animals with sweat spots of each grade at 5 min after application of solution B: grade -” value [15] was 0 animals.
For `COc1ccc(C2OCC3C(c4ccc(OC5OC(C(=O)O)C(O)C(O)C5O)c(O)c4)OCC23)cc1OC` [9-Hydroxy-phillygenin glucuronide, 9-hydroxy phillygenin-8-O-β-D-glucuronide], the “Minimum effective concentration MEC” value [11] was 0.4 mg/L and the “Maximum non-toxic concentration TD0” value [12] was 40 mg/L.
With `Nc1nc(O)c2ncn(COC(CO)CO)c2n1` [Ganciclovir (GCV), Ganciclovir, reference compound] the “Minimum effective concentration MEC” value [11] was 10 mg/L and the “Maximum non-toxic concentration TD0” value ([12]; human) was 10 mg/L.
With `CC(=O)Nc1ccc(O)cc1` [Paracetamol, reference compound] the “Body temperature change (%) (antipyretic percentage), time post-dose 1 h” value ([16]; 1 h post-dose) was -2.07±0.54^∗∗ %, the “Body temperature, time post-dose 1 h” value ([16]; 1 h post-dose) was 38.66±0.59 °C and the “Body temperature change (%) (antipyretic percentage), time post-dose 2 h” value ([16]; 2 h post-dose) was -3.27±0.77^∗∗∗ %. For the same compound, the “Body temperature, time post-dose 2 h” value ([16]; 2 h post-dose) was 38.19±0.59 °C, the “Body temperature change (%) (antipyretic percentage), time post-dose 3 h” value ([16]; 3 h post-dose) was -3.80±1.43^∗∗∗ % and the “Body temperature, time post-dose 3 h” value ([16]; 3 h post-dose) was 37.98±0.19 °C. The “Body temperature change (%) (antipyretic percentage), time post-dose 4 h” value ([16]; 4 h post-dose) was -4.15±1.59^∗∗∗ % and the “Body temperature, time post-dose 4 h” value ([16]; 4 h post-dose) was 37.84±0.32 °C.
With `COc1cc(C2OCC3C(c4ccc5c(c4)OCO5)OCC23)ccc1OC1OC(C(=O)O)C(O)C(O)C1O` [33, 34-methylenedioxy phillygenin-8-O-β-D-glucuronide] the “Minimum effective concentration MEC” value [11] was 0.4 mg/L and the “Maximum non-toxic concentration TD0” value [12] was 40 mg/L.
`CCOC(=O)C1=C[C@@H](OC(CC)CC)[C@H](NC(C)=O)[C@@H](N)C1` [Oseltamivir Phosphate, reference compound] was tested, and the “Effective Antiviral Rates (ER%) RSV” value [1] was 37.60%, the “Lung index (x̅ ±S)” value [17, 20] was 1.243±0.054 and the “Lung index Inhibitory rate (%)” value [17, 20] was 21.85%. For the same compound, the “Lung index compared with the infection model group, in words” value ([17]; P < 0.05 or P < 0.01) was “decreased significantly”, the “Effective Antiviral Rates (ER%) Parainfluenza virus” value [2] was 94.52** % and the “Hemagglutinin titer (InX)” value ([3]; 19.5 mg/kg/day by gavage) was 22.05±1.055. The “Inhibitory rate (%) of hemagglutination titer” value ([3]; 19.5 mg/kg/day by gavage) was 33.40%, the “Half toxic concentration (TC50)” value [18] was 0.832 g/L and the “Maximum non-toxic concentration (TC0)” value [18] was 0.28 g/L. For the same compound, the “Effective Antiviral Rates (ER%) Influenza virus” value ([4]; Vero cells, 100TCID50, drug at maximum non-toxic concentration, 72 h, MTT) was 81.76** %, the “Effective Antiviral Rates (ER%) CoxA16” value [5] was 2.95% and the “Effective Antiviral Rates (ER%) HSV-I” value [6] was 66.56** %. The “Effective Antiviral Rates (ER%) CVB3” value [7] was 1.64%, the “Effective Antiviral Rates (ER%) EV71” value [8] was 51.86% and the “Effective Antiviral Rates (ER%) ADV” value [9] was 10.31%. For the same compound, the “Hemagglutinin titer (InX)” value ([10]; 19.5 mg/kg/day by gavage) was 20.50±1.123, the “Inhibitory rate (%) of hemagglutination titer” value ([10]; 19.5 mg/kg/day by gavage) was 36.73% and the “Lung index (x̅ ±S)” value [19, 21] was 1.178±0.066. The “Lung index Inhibitory rate (%)” value [19, 21] was 19.84% and the “Lung index compared with the infection model group, in words” value ([19]; mouse, in vivo) was “decreased significantly”.
